Measured values as given in patent US20240343658A1, “MICRONUTRIENT COMPOSITIONS AND SYSTEMS AND METHODS OF USING SAME” (Winfield Solutions, LLC, priority 2016, published 2024).

Experiment: compatibility with pesticides, modified ASTM E1518-05 (2012) tank mixture test
Assay type: physicochemical
Conditions: admixture with the zinc-containing adjuvant, after 72 hours
Protocol: The zinc-containing adjuvant compositions of the present disclosure were tested for compatibility with pesticides using a modified approach from ASTM E1518-05 (2012), Standard Practice for Evaluation of Physical Compatibility of Pesticides in Aqueous Tank Mixtures by the Dynamic Shaker Method, ASTM International, West Conshohocken, P A, 2012. The pesticides tested included: glyphosate including in its various forms including Roundup®) PowerMax®, Durango®, Cornerstone® 5 plus, Touchdown Total®, Enlist Duo™ (containing glyphosate and 2,4-D) and MON 76382; 2,4-D; Sterling® Blue; Basagran®; Enginia™.
Materials and Methods: The apparatuses used in compatibility testing included: 1. a graduated cylinder, 120 mL; 2. transfer pipets; 3. balance, +0.01 g; 4. a sieve, U.S. standard, 50 mesh (300 μm), 3 inches in diameter; and 5. a flashlight. […] Synthetic water was made according to CIPAC handbook F section MT18.
The final disposition of the compatibility test was on or around 100 mL, and the ratios needed to bring an application of 10 gallons per acre to 100 mL per acre were calculated. 70 percent of the water needed for the compatibility test was added to the cylinder at room temperature. The remaining components were added for the jar test according to WALES and DALES unless otherwise specified by the product label. Applications rates were used from the product label. […]

Q: For `O=C(O)COc1ccc(Cl)cc1Cl` [2,4-D, 2,4-Dichlorophenoxyacetic acid], which compatibility observation is on record?
A: The compatibility observation was “same results as the 24 hour testing”.
